The target of experiment [1] is T1, GST-tagged GDP-loaded KRAS G12V (amino acids 1-169) (Homo sapiens, UniProt P01116, G12V).
T1 construct: GST-tagged GDP-loaded KRAS G12V (amino acids 1-169); made in house; host or cells: E. coli
The experiment in a line: KRAS G12V probe displacement assay (TR-FRET). Format: binding. To be noted: displacement of biotinylated probe 2 from GDP-loaded KRAS G12V. The method in brief: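 GST-tagged GDP-loaded KRAS 1-169 (WT 3 nM; G12V 2 nM final) preincubated 1 h at 24 °C with serially diluted compound in HEPES pH 7.5 buffer, then biotinylated probe added (probe 1 60 nM for WT; probe 2 2.5 nM for G12V), 1 h. Anti-GST-Tb/streptavidin-XL665 TR-FRET 665/620 ratio; IC50 by four-parameter fit.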
On the technique in general: Time-resolved FRET reads energy transfer from a long-lived donor to a nearby acceptor.

Experiment [2] has as its system pERK1/2(THR202/TYR204) level, SW620 cell line. The experiment in a line: KRAS G12V pERK assay (HTRF). Format: cell-based. To be noted: Homo sapiens, SW-620; SW620 cells, 2 hrs compound treatment. The protocol:
SW620 cell line was used in this study. Cells were maintained in RPMI 1640 supplemented with 10% fetal bovine serum (Thermo Fisher), 50 units/mL penicillin and streptomycin (Thermo Fisher) and kept at 37° C. in a humidified atmosphere of 5% CO2 in air. Cells were reinstated from frozen stocks that were laid down within 30 passages from the original cells purchased. 40000 cells per well were seeded into a 96-well plate and incubated overnight. Cells were treated with a 10-point dilution series. The final compound concentration is from […]. After 2 hrs compound treatment, cells were lysed, and the pERK1/2(THR202/TYR204) level in the cell lysates was detected by HTRF kit (Cisbio). In brief, a total of 16 μL of cell lysate from each well of a 96-well plate was transferred to a 384-well white assay plate. Lysate from each well was incubated with 2 μL of Eu3+− cryptate (donor) labeled anti-phospho-ERK1/2 and 2 μL of D2 (acceptor) labeled anti-phospho-ERK1/2 antibodies (Cisbio) overnight in dark at room temperature. When donor and acceptor are in close proximity, excitation of the donor with laser triggers a Fluorescence Resonance Energy Transfer (FRET) towards the acceptor, which in turn fluoresces at 655 nm wavelength. FRET signals were measured using a PHERAstar FSX reader (BMG Labtech). IC50 determination was performed by fitting the curve of percent inhibition versus the log of the inhibitor concentration using Dotmatics.

T1 sequence (P01116 1-169 isoform P01116-2 G12V): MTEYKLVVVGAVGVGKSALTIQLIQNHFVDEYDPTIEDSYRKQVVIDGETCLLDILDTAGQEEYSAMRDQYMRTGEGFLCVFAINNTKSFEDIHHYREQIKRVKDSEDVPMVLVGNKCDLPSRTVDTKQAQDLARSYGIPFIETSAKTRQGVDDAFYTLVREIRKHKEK

By IC50 is commonly meant the midpoint of a concentration-inhibition curve. Read a high IC50 as a need for much substance. On to `CN1CC2(CCN(c3nc(OC[C@@]45CCCN4C[C@H](F)C5)nc4c(F)c(-c5ccc(F)c6sc(N)nc56)c(C(F)(F)F)cc34)CC2)OC1=O` [Example 87, 8-(7-(2-amino-7-fluorobenzo[d]thiazol-4-yl)-8-fluoro-2-(((2R,7aS)-2-fluorotetrahydro-1H-pyrrolizin-7a(5H)-yl)methoxy)-6-(trifluoromethyl)quinazolin-4-yl)-3-methyl-1-oxa-3,8-diazaspiro[4.5]decan-2-one], for which the IC50 in experiment [1] was 0.77 nM; in experiment [2] it was 108 nM.
Regarding `Nc1nc2c(-c3c(C(F)(F)F)cc4c(N5CCC5)nc(OC[C@@]56CCCN5C[C@H](F)C6)nc4c3F)ccc(F)c2s1` [Example 33, 4-(4-(azetidin-1-yl)-8-fluoro-2-(((2R,7aS)-2-fluorotetrahydro-1H-pyrrolizin-7a(5H)-yl)methoxy)-6-(trifluoromethyl)quinazolin-7-yl)-7-fluorobenzo[d]thiazol-2-amine], the IC50 in experiment [1] was determined as 2.6 nM; in experiment [2] it was 333 nM.
On the same counts, the results for `CC1C(C#N)CN1c1nc(OC[C@@]23CCCN2C[C@H](F)C3)nc2c(F)c(-c3ccc(F)c4sc(N)nc34)c(C(F)(F)F)cc12` (stereo partly drawn) [Example 43, 1-(7-(2-amino-7-fluorobenzo[d]thiazol-4-yl)-8-fluoro-2-(((2R,7aS)-2-fluorotetrahydro-1H-pyrrolizin-7a(5H)-yl)methoxy)-6-(trifluoromethyl)quinazolin-4-yl)-2-methylazetidine-3-carbonitrile] are 7.1 nM and 356 nM.
For the molecule `N#CC1CCCN(c2nc(OC[C@@]34CCCN3C[C@H](F)C4)nc3c(F)c(-c4ccc(F)c5sc(N)nc45)c(C(F)(F)F)cc23)CC1` (stereo partly drawn) [Example 82, 1-(7-(2-amino-7-fluorobenzo[d]thiazol-4-yl)-8-fluoro-2-(((2R,7aS)-2-fluorotetrahydro-1H-pyrrolizin-7a(5H)-yl)methoxy)-6-(trifluoromethyl)quinazolin-4-yl)azepane-4-carbonitrile], the IC50 in experiment [1] stood at 0.74 nM; in experiment [2] it was 199 nM.
As to `C[C@@H]1C[C@@H](C#N)CCN1c1nc(OC[C@@]23CCCN2C[C@H](F)C3)nc2c(F)c(-c3ccc(F)c4sc(N)c(C#N)c34)c(Cl)cc12` [Example 101, (2R,4S)-1-(7-(2-amino-3-cyano-7-fluorobenzo[b]thiophen-4-yl)-6-chloro-8-fluoro-2-(((2R,7aS)-2-fluorotetrahydro-1H-pyrrolizin-7a(5H)-yl)methoxy)quinazolin-4-yl)-2-methylpiperidine-4-carbonitrile], the IC50 in experiment [1] stood at 0.28 nM; in experiment [2], 11 nM.
On the same counts, the results for `Nc1nc2c(-c3c(C(F)(F)F)cc4c(N[C@H]5[C@@H]6COC[C@@H]65)nc(OC[C@@]56CCCN5C[C@H](F)C6)nc4c3F)ccc(F)c2s1` [Example 7, 4-(4-(((1R,5S,6r)-3-oxabicyclo [3.1.0]hexan-6-yl)amino)-8-fluoro-2-(((2R,7aS)-2-fluorotetrahydro-1H-pyrrolizin-7a(5H)-yl)methoxy)-6-(trifluoromethyl)quinazolin-7-yl)-7-fluorobenzo[d]thiazol-2-amine] are 4.2 nM and 220 nM.
The molecule `N#C[C@H]1CCCN(c2nc(OC[C@@]34CCCN3C[C@H](F)C4)nc3c(F)c(-c4ccc(F)c5sc(N)nc45)c(C(F)(F)F)cc23)C1` [Example 77, (3S)-1-(7-(2-amino-7-fluorobenzo[d]thiazol-4-yl)-8-fluoro-2-(((2R,7aS)-2-fluorotetrahydro-1H-pyrrolizin-7a(5H)-yl)methoxy)-6-(trifluoromethyl)quinazolin-4-yl)piperidine-3-carbonitrile] yielded an IC50 in experiment [1] of 17 nM.
Regarding `N#CC1CCN(c2nc(OC[C@@]34CCCN3C[C@H](F)C4)nc3c(F)c(-c4cc(N)cc(Cl)c4C(F)(F)F)ncc23)CC1F` (stereo partly drawn) [Example 122, 1-(7-(5-amino-3-chloro-2-(trifluoromethyl)phenyl)-8-fluoro-2-(((2R,7aS)-2-fluorotetrahydro-1H-pyrrolizin-7a(5H)-yl)methoxy)pyrido[4,3-d]pyrimidin-4-yl)-3-fluoropiperidine-4-carbonitrile], the IC50 in experiment [1] was determined as 28 nM.
In turn, `Nc1nc2c(-c3c(C(F)(F)F)cc4c(N5CCC6(CC5)CN(CCO)C(=O)O6)nc(OC[C@@]56CCCN5C[C@H](F)C6)nc4c3F)ccc(F)c2s1` [Example 93, 8-(7-(2-amino-7-fluorobenzo[d]thiazol-4-yl)-8-fluoro-2-(((2R,7aS)-2-fluorotetrahydro-1H-pyrrolizin-7a(5H)-yl)methoxy)-6-(trifluoromethyl)quinazolin-4-yl)-3-(2-hydroxyethyl)-1-oxa-3,8-diazaspiro[4.5]decan-2-one] had an IC50 in experiment [1] of 2.2 nM.
Molecule `Nc1nc2c(-c3c(C(F)(F)F)cc4c(N5CC[C@@H]5CO)nc(OC[C@@]56CCCN5C[C@H](F)C6)nc4c3F)ccc(F)c2s1` [Example 49, ((2R)-1-(7-(2-amino-7-fluorobenzo[d]thiazol-4-yl)-8-fluoro-2-(((2R,7aS)-2-fluorotetrahydro-1H-pyrrolizin-7a(5H)-yl)methoxy)-6-(trifluoromethyl)quinazolin-4-yl)azetidin-2-yl) methanol] had an IC50 in experiment [1] of 3 nM.
Still for that read-out and setting: the result for `CCC1(O)CCCN(c2nc(OC[C@@]34CCCN3C[C@H](F)C4)nc3c(F)c(-c4cc(N)cc(Cl)c4C(F)(F)F)ncc23)C1` (stereo partly drawn) [Example 130, 1-(7-(5-amino-3-chloro-2-(trifluoromethyl)phenyl)-8-fluoro-2-(((2R,7aS)-2-fluorotetrahydro-1H-pyrrolizin-7a(5H)-yl)methoxy)pyrido[4,3-d]pyrimidin-4-yl)-3-ethylpiperidin-3-ol] reads 32 nM; that for `CC[C@H]1CCCN1c1nc(OC[C@@]23CCCN2C[C@H](F)C3)nc2c(F)c(-c3ccc(F)c4sc(N)nc34)c(C(F)(F)F)cc12` [Example 59, 4-(4-((S)-2-ethylpyrrolidin-1-yl)-8-fluoro-2-(((2R,7aS)-2-fluorotetrahydro-1H-pyrrolizin-7a(5H)-yl)methoxy)-6-(trifluoromethyl)quinazolin-7-yl)-7-fluorobenzo[d]thiazol-2-amine], 27 nM.
Same read-out and setting: in the case of `Nc1nc2c(-c3c(C(F)(F)F)cc4c(N5CC(CO)C5)nc(OC[C@@]56CCCN5C[C@H](F)C6)nc4c3F)ccc(F)c2s1` [Example 48, (1-(7-(2-amino-7-fluorobenzo[d]thiazol-4-yl)-8-fluoro-2-(((2R,7aS)-2-fluorotetrahydro-1H-pyrrolizin-7a(5H)-yl)methoxy)-6-(trifluoromethyl)quinazolin-4-yl)azetidin-3-yl)methanol] it was 4.1 nM.
Same read-out and setting: the result for `COC1CN(c2nc(OC[C@@]34CCCN3C[C@H](F)C4)nc3c(F)c(-c4ccc(F)c5sc(N)nc45)c(C(F)(F)F)cc23)C1` [Example 45, 7-fluoro-4-(8-fluoro-2-(((2R,7aS)-2-fluorotetrahydro-1H-pyrrolizin-7a(5H)-yl)methoxy)-4-(3-methoxyazetidin-1-yl)-6-(trifluoromethyl)quinazolin-7-yl)benzo[d]thiazol-2-amine] reads 15 nM; that for `C[C@@H]1CCN(c2nc(OC[C@@]34CCCN3C[C@H](F)C4)nc3c(F)c(-c4ccc(F)c5sc(N)nc45)c(C(F)(F)F)cc23)C1` [Example 54, 7-fluoro-4-(8-fluoro-2-(((2R,7aS)-2-fluorotetrahydro-1H-pyrrolizin-7a(5H)-yl)methoxy)-4-((R)-3-methylpyrrolidin-1-yl)-6-(trifluoromethyl)quinazolin-7-yl)benzo[d]thiazol-2-amine], 41 nM.
For the molecule `N#CCC1CCCN(c2nc(OC[C@@]34CCCN3C[C@H](F)C4)nc3c(F)c(-c4cc(N)cc(Cl)c4C(F)(F)F)ncc23)C1` (stereo partly drawn) [Example 126, 2-(1-(7-(5-amino-3-chloro-2-(trifluoromethyl)phenyl)-8-fluoro-2-(((2R,7aS)-2-fluorotetrahydro-1H-pyrrolizin-7a(5H)-yl)methoxy)pyrido[4,3-d]pyrimidin-4-yl)piperidin-3-yl)acetonitrile], in experiment [1], the IC50 came to 6.3 nM.
Molecule `Nc1nc2c(-c3c(C(F)(F)F)cc4c(N5CCCC5)nc(OC[C@@]56CCCN5C[C@H](F)C6)nc4c3F)ccc(F)c2s1` [Example 50, 7-fluoro-4-(8-fluoro-2-(((2R,7aS)-2-fluorotetrahydro-1H-pyrrolizin-7a(5H)-yl)methoxy)-4-(pyrrolidin-1-yl)-6-(trifluoromethyl)quinazolin-7-yl)benzo[d]thiazol-2-amine] yielded an IC50 in experiment [1] of 13 nM.
The same measure, in the same setting: in the case of `Nc1nc2c(-c3c(C(F)(F)F)cc4c(N5CC[C@@H](CO)C5)nc(OC[C@@]56CCCN5C[C@H](F)C6)nc4c3F)ccc(F)c2s1` [Example 65, ((3R)-1-(7-(2-amino-7-fluorobenzo[d]thiazol-4-yl)-8-fluoro-2-(((2R,7aS)-2-fluorotetrahydro-1H-pyrrolizin-7a(5H)-yl)methoxy)-6-(trifluoromethyl)quinazolin-4-yl)pyrrolidin-3-yl)methanol] it was 4.1 nM.

Source of the values: patent US20250101028A1, “HETEROCYCLIC COMPOUNDS, COMPOSITIONS THEREOF, AND METHODS OF TREATMENT THEREWITH” (BeiGene, Ltd., priority 2022, published 2025).
